Like-named read-outs stand apart in the source and are kept apart here.
How the values were obtained:
[1] = target: α4β1 integrin (Homo sapiens (Human), UniProt P05556+P13612); assay: Integrin Adhesion Assay: Protocol 5 (VCAM-coated plate, RPMI-8866 cells with stable LOF mutation of the ITGB7 gene); format: cell-based
Summary of the method: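 RPMI-8866 B cells with CRISPR/Cas9 ITGB7 knockout (clonal, verified by flow cytometry) adhered to VCAM-coated wells for 1 h at 37° C in HEPES/NaCl buffer with 1 mM MnCl2, 0.1 mM CaCl2, 1% BSA, 1% DMSO. Bound cells quantified by CellTiter-Glo luminescence after washing; % inhibition versus DMSO and control, 4-parameter fit.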

[2] = target: α4β7 integrin (Homo sapiens (Human), UniProt P13612+P26010); assay: Integrin Adhesion Assay: Protocol 4 (MAdCAM-coated plate, RPMI-8866 cells with stable LOF mutation of the ITGB1 gene); format: cell-based
Summary of the method: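 RPMI-8866 cells with CRISPR/Cas9 knockout of ITGB1 (2×10^6/mL) were added to MAdCAM-coated wells with compound (1% DMSO) in HEPES/NaCl buffer with 1 mM MnCl2, 0.1 mM CaCl2 and 1% BSA, then incubated 1 h at 37 °C. After four washes, adherent cells were quantified by CellTiter-Glo luminescence. Percent inhibition versus DMSO and control compound was fitted to 4-parameter curves.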

[3] = Protocol 5, RPMI-8866 cells with LOF mutation of ITGB7, VCAM, read-out: Mean IC50 α4β1 KO
[4] = Protocol 4, RPMI-8866 cells with LOF mutation of ITGB1, MAdCAM, read-out: Mean IC50 α4β7 KO
[5] = RPMI-8866 cells with stable LOF mutation of the ITGB7 gene, read-out: Mean IC50 α4β1 KO^b
[6] = RPMI-8866 cells with stable LOF mutation of the ITGB1 gene, read-out: Mean IC50 α4β7 KO^a

α4β1 integrin, sequence (P13612 34-1032): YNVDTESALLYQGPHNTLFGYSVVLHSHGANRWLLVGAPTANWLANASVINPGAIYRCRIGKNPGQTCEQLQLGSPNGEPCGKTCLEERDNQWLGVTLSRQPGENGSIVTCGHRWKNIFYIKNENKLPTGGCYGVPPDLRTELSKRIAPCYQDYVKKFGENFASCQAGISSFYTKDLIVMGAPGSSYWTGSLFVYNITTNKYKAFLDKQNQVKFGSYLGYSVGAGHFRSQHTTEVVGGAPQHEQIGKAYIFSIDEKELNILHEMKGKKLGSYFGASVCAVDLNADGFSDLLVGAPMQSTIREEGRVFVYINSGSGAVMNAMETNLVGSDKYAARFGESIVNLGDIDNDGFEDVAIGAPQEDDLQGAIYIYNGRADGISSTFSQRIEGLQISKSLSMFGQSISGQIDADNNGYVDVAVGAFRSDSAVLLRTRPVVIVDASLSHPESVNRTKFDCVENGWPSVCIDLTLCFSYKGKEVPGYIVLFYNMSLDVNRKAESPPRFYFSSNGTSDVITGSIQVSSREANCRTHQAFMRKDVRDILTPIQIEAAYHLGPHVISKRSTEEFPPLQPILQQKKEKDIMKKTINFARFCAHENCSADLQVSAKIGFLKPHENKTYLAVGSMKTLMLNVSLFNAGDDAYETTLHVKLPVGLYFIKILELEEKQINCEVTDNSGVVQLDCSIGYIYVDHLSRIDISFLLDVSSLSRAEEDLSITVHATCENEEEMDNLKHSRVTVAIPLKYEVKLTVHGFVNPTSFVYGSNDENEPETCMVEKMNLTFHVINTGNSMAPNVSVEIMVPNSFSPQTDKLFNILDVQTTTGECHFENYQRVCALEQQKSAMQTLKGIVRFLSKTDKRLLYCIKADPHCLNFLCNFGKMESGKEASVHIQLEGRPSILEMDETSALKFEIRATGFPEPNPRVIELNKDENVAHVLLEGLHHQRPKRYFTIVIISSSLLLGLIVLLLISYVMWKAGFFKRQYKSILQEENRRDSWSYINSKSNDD
α4β1 integrin, sequence (P05556 21-798): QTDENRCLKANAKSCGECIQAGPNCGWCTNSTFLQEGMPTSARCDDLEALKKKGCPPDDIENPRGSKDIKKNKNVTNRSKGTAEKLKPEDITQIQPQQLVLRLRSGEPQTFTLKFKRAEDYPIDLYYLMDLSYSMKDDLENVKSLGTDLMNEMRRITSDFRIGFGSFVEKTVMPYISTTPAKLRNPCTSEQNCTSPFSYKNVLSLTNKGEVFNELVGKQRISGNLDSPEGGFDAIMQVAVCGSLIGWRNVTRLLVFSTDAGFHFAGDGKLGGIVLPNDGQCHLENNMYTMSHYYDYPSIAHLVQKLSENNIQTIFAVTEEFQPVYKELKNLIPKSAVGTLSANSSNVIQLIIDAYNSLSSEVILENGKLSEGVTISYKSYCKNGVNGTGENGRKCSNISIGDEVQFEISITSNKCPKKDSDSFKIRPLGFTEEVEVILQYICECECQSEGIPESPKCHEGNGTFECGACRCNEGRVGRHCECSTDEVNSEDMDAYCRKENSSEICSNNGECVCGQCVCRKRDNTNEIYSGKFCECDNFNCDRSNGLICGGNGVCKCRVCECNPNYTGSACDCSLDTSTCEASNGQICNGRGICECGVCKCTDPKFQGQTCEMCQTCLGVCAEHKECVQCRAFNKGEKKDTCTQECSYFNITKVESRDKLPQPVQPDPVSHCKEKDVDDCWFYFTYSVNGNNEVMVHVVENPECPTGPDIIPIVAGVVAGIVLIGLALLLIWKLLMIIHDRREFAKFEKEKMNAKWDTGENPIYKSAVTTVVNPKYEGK
α4β7 integrin, sequence (P13612 34-1032): as the sequence (P13612 34-1032) above
α4β7 integrin, sequence (P26010 20-798): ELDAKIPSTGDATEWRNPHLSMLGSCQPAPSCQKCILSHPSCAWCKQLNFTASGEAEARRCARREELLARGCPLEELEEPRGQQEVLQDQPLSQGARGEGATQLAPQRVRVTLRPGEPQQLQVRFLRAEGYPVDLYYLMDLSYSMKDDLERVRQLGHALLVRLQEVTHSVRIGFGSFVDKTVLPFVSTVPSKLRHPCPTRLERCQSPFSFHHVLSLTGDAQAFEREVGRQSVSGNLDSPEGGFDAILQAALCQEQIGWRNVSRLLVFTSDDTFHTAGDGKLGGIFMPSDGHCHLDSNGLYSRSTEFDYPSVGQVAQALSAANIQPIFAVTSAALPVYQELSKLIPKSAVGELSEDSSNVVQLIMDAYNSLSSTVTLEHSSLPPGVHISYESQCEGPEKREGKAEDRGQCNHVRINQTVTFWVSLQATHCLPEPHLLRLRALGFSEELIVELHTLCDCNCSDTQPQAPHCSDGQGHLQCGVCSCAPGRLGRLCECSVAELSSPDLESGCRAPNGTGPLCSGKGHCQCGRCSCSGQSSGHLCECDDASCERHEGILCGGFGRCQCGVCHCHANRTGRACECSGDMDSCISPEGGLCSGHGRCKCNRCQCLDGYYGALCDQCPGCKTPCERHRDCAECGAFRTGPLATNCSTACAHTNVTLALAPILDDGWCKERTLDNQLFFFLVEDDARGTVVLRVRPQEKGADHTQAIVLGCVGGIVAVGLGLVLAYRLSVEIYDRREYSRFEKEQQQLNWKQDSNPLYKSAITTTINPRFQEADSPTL

Compound	IC50 [1, 3] [µM]	IC50 [2, 4] [µM]	IC50 [1, 5] [µM]	IC50 [2, 6] [µM]
O=C(O)[C@H](Cc1cccc2c(-c3ccc(CN4CCCC(F)C4)c4ccncc34)cccc12)NC(=O)C1(C(F)(F)F)CCN(CC(F)(F)F)CC1 (stereo partly drawn) [Compound 989]	> 1	0.01 to 0.1	–	–
O=C(O)[C@H](Cc1cccc2c(-c3ncc(CN4CCCC4)c4ccccc34)cccc12)NC(=O)C1(C(F)(F)F)CCN(CC(F)(F)F)CC1 [Compound 918]	> 1	< 0.01	–	–
COc1ccc(CN2CCC(C(F)(F)F)CC2)c(OC)c1-c1cccc2c(C[C@H](NC(=O)c3c(C)cccc3F)C(=O)O)cccc12 [Compound 569]	–	–	0.1 to 1	< 0.01
COc1ccc(CN(C)C)c(OC)c1-c1cccc2c(C[C@H](NC(=O)c3c(F)cccc3C(F)(F)F)C(=O)O)cccc12 [Compound 479]	–	–	0.1 to 1	< 0.01
O=C(O)[C@H](Cc1cccc2c(-c3ncc(CCN4CCCCC4)c4ccccc34)cccc12)NC(=O)C1(C(F)(F)F)CCN(CC(F)(F)F)CC1 [Compound 962]	> 1	< 0.01	–	–
O=C(O)[C@H](Cc1cccc2c(-c3ncc(CN4CC5(CC5)C4)c4ccccc34)cccc12)NC(=O)C1(C(F)(F)F)CCN(CC(F)F)CC1 [Compound 908]	0.1 to 1	< 0.01	–	–
O=C(O)[C@H](Cc1cccc2c(-c3ncc(CN4CCCC(F)(F)CC4)c4ccccc34)cccc12)NC(=O)C1(C(F)(F)F)CCN(CC(F)F)CC1 [Compound 915]	> 1	< 0.01	–	–
O=C(O)[C@H](Cc1cccc2c(-c3ncc(CN4CCC(F)(F)CC4)cc3C3CC3)cccc12)NC(=O)C1(C(F)(F)F)CCN(CC(F)F)CC1 [Compound 951]	0.1 to 1	< 0.01	–	–
CN(C)Cc1cccc2c(-c3cccc4c(C[C@H](NC(=O)C5(C(F)(F)F)CCN([C@@H]6CCOC6)CC5)C(=O)O)cccc34)nccc12 [Compound 592]	–	–	> 1	< 0.01
COc1cc2c(c(C(F)(F)F)c1-c1cccc3c(C[C@H](NC(=O)C4(C(F)(F)F)CCN(CC(F)(F)F)CC4)C(=O)O)cccc13)CCN(CC(F)(F)F)C2 [Compound 673]	–	–	> 1	0.01 to 0.1
COc1cc(CN2CCCCC2)cc(Cl)c1-c1cccc2c(C[C@H](NC(=O)C3(C(F)(F)F)CCN(CC(F)(F)F)CC3)C(=O)O)cccc12 [Compound 804]	0.1 to 1	< 0.01	–	–
Cc1cccc(F)c1C(=O)N[C@@H](Cc1cccc2c(-c3cc(CN4CCCCC4)ccn3)cccc12)C(=O)O [Compound 688]	> 1	0.01 to 0.1	–	–
COc1cc(CN2CCCCC2)c2cccnc2c1-c1cccc2c(C[C@H](NC(=O)C3(C(F)(F)F)CCN(CC(F)(F)F)CC3)C(=O)O)cccc12 [Compound 728]	0.1 to 1	< 0.01	–	–
COc1ccc2c(c1-c1cccc3c(C[C@H](NC(=O)c4c(C)cccc4F)C(=O)O)cccc13)CN(CC(F)F)CC2 [Compound 995]	0.1 to 1	0.01 to 0.1	–	–
COc1cccc(CCN2CCC(C)(C)CC2)c1-c1cccc2c(C[C@H](NC(=O)c3c(C)cccc3F)C(=O)O)cccc12 [Compound 1033]	0.1 to 1	< 0.01	–	–
O=C(O)[C@H](Cc1cccc2c(-c3cccc4c3OCCO4)cccc12)NC(=O)C1(C(F)(F)F)CCN(CC(F)(F)F)CC1 [Compound 766]	> 1	0.01 to 0.1	–	–
COc1cc(C(F)(F)F)cc(CN2CCCCC2)c1-c1cccc2c(C[C@H](NC(=O)C3(C(F)(F)F)CCN(CC(F)(F)F)CC3)C(=O)O)cccc12 [Compound 830]	> 1	0.01 to 0.1	–	–
Cc1cc(CN2CCCCC2)cnc1-c1cccc2c(C[C@H](NC(=O)C3(C(F)(F)F)CCN(CC(F)F)CC3)C(=O)O)cccc12 [Compound 721]	> 1	0.01 to 0.1	–	–
CC1(C(=O)N[C@@H](Cc2cccc3c(-c4ncc(CN5CCCCC5)c5ccccc45)cccc23)C(=O)O)CC2CCC(C1)N2CC(F)(F)F (stereo partly drawn) [Compound 679]	–	–	> 1	0.01 to 0.1
COc1ccc(CN2CCC(F)CC2)c(C(F)(F)F)c1-c1cccc2c(C[C@H](NC(=O)C3(C(F)(F)F)CCN(CC(F)(F)F)CC3)C(=O)O)cccc12 [Compound 821]	> 1	0.01 to 0.1	–	–

Compound	IC50 [1, 3] [µM]	IC50 [2, 4] [µM]	IC50 [1, 5] [µM]	IC50 [2, 6] [µM]
COc1cccc(CCCN2CCC(F)(F)CC2)c1-c1cccc2c(C[C@H](NC(=O)C3(C(F)(F)F)CCN(CC(F)(F)F)CC3)C(=O)O)cccc12 [Compound 742]	> 1	0.01 to 0.1	–	–
COc1ccc(CN2CCC(c3ccccc3)CC2)c(OC)c1-c1cccc2c(C[C@H](NC(=O)C3(C(F)(F)F)CCN(CC(F)(F)F)CC3)C(=O)O)cccc12 [Compound 807]	> 1	< 0.01	–	–
COc1cccc(CCN2CCC[C@@H](F)C2)c1-c1cccc2c(C[C@H](NC(=O)c3c(C)cccc3F)C(=O)O)cccc12 [Compound 1036]	> 1	< 0.01	–	–
COc1ccc(CCN2CCC(C)(C)CC2)c(OC)c1-c1cccc2c(C[C@H](NC(=O)C3(C(F)(F)F)CCN(CC(F)(F)F)CC3)C(=O)O)cccc12 [Compound 967]	0.1 to 1	< 0.01	–	–
CCOCc1cc(OC)c(-c2cccc3c(C[C@H](NC(=O)C4(C(F)(F)F)CCN(C5COC5)CC4)C(=O)O)cccc23)c(OC)c1 [Compound 498]	–	–	0.1 to 1	< 0.01
COc1ccc(CN(C)C)c(OC)c1-c1cccc2c(C[C@H](NC(=O)c3c(F)ccc(F)c3C)C(=O)O)cccc12 [Compound 589]	–	–	> 1	< 0.01
O=C(O)[C@H](Cc1cccc2c(-c3ncc(CN4CCCCC4)c4c3CCCC4)cccc12)NC(=O)C1(C(F)(F)F)CCN(CC(F)(F)F)CC1 [Compound 746]	> 1	< 0.01	–	–
CN(C)CCc1cccc2c(-c3cccc4c(C[C@H](NC(=O)C5(C(F)(F)F)CCN(CC(F)(F)F)CC5)C(=O)O)cccc34)nccc12 [Compound 1042]	0.1 to 1	< 0.01	–	–
Cc1c(CCN2CCC(F)(F)CC2)ccnc1-c1cccc2c(C[C@H](NC(=O)C3(C(F)(F)F)CCN(CC(F)(F)F)CC3)C(=O)O)cccc12 [Compound 716]	> 1	< 0.01	–	–
COc1cccc(CCN2CCC(C)(C)CC2)c1-c1cccc2c(C[C@H](NC(=O)C3(C(F)(F)F)CCN(CC(F)(F)F)CC3)C(=O)O)cccc12 [Compound 960]	> 1	< 0.01	–	–
COc1c(CN(C)C)ccc(Cl)c1-c1cccc2c(C[C@H](NC(=O)c3c(C)cccc3F)C(=O)O)cccc12 [Compound 1011]	> 1	< 0.01	–	–
Cn1c(=O)c(-c2cccc3c(C[C@H](NC(=O)C4(C(F)(F)F)CCN(C5(C(F)(F)F)CC5)CC4)C(=O)O)cccc23)c(C(F)(F)F)c2ccccc21 [Compound 486]	–	–	> 1	> 1
O=C(O)[C@H](Cc1cccc2c(-c3ncccc3CN3CCCCC3)cccc12)NC(=O)C1(C(F)(F)F)CCN(CC(F)(F)F)CC1 [Compound 793]	> 1	0.01 to 0.1	–	–
O=C(O)[C@H](Cc1cccc2c(-c3ncc(CN4CCCCC4)cc3C(F)(F)F)cccc12)NC(=O)C1(C(F)(F)F)CCN(CC(F)(F)F)CC1 [Compound 881]	> 1	0.01 to 0.1	–	–
O=C(O)[C@H](Cc1cccc2c(-c3nccc4ccc(CCCN5CCCCC5)cc34)cccc12)NC(=O)C1(C(F)(F)F)CCN(C2COC2)CC1 [Compound 547]	–	–	0.1 to 1	< 0.01
COc1ccc2ccnc(-c3cccc4c(C[C@H](NC(=O)C5(C(F)(F)F)CCN(CC(F)(F)F)CC5)C(=O)O)cccc34)c2c1 [Compound 777]	> 1	0.01 to 0.1	–	–
O=C(O)[C@H](Cc1cccc2c(-c3cc4ccccc4cn3)cccc12)NC(=O)C1(C(F)(F)F)CCN(C2COC2)CC1 [Compound 525]	–	–	> 1	0.01 to 0.1
CC[C@H](N1CCC(C(=O)N[C@@H](Cc2cccc3c(-c4c(C(F)(F)F)c5ccccc5n(C)c4=O)cccc23)C(=O)O)(C(F)(F)F)CC1)C(F)(F)F [Compound 518]	–	–	> 1	> 1
O=C(O)[C@H](Cc1cccc2c(-c3ncc(CN4CC5(CC5)C4)c4ccccc34)cccc12)NC(=O)C1(C(F)(F)F)CCN(CC(F)(F)F)CC1 [Compound 887]	> 1	< 0.01	–	–
